Measurements: patent publication US4463001A, “6-Substituted 6H-dibenzo[b,d]pyran derivatives and process for their preparation” (Farmitalia Carlo Erba S.p.A., priority 1980, dated 1984)

Experiments:
[1] = orientative acute toxicity (LD50) in mice; conditions: mouse, in vivo, single oral administration, assessed on seventh day
Procedure: The toxicity of the compounds of the invention is negligible. Nine hours food deprived mice were treated orally with single administration of increasing doses, then housed and normally fed. The orientative acute toxicity (LD50) was assessed on the seventh day after the treatment and, for example, the following data were obtained: […]

restraint ulcers = assay: inhibition of restraint ulcers in rats (anti-ulcerogenic activity); assay type: in vivo, rat (Sprague-Dawley male); conditions: po, 4 h; rat, p.o., approximate ED50; read-out: Antiulcerogenic activity ED50 p.o.
Source text: The compounds of the invention are also useful for reducing the undesirable gastrointestinal side-effects resulting from systemic administration of anti-inflammatory prostaglandin synthetase inhibitors and may be, therefore, used for this purpose in association with them. The anti-ulcerogenic activity of the compounds of the invention is shown, e.g., by the fact that they are active in the test of the inhibition of restraint ulcers in rats, according to the method of Bonfils et al., (Therapie, 1960, 5, 1096; Jap. J. Pharmac. 1945, 43, 5).
According to this method, the tested compounds were administered per os (p.o.) one hour before the immobilization. Six Sprague-Dawley male rats (100-120 g) fasted 24 hours were used for the experiment: a square flexible small-mesh wire netting was used for the immobilization and 4 hours after the immobilization the rats were sacrificed, their stomachs were removed and the lesions counted under a dissecting microscope.

[2] = test system: syndrome induced by oxotremorine; assay: antagonism against syndrome induced by oxotremorine in mice (anti-cholinergic activity); assay type: in vivo, mice (male); conditions: Mus musculus, po, approximate ED50, read-out: Anticholinergic activity ED50 p.o.
Procedure: Considering that many anti-ulcer agents display, as does atropine, a remarkable but undesired anti-cholinergic activity, the compounds of the invention were also assessed for their antagonism against syndrome induced by oxotremorine in mice, according to the method described by Leszkovszky G. P. and Tardos L. (Europ. J. Pharmac. 1971, 15, 310). According to this method 5 male mice, 20-25 g body weight, were used for each group.

gastric secretion = assay: inhibition of gastric secretion in pylorus-ligated rats (antisecretory activity, method of Shay); assay type: in vivo, rat (Sprague-Dawley male); conditions: 4 h; rat, intraduodenal, approximate ED50; read-out: Antisecretory activity ED50 i.d.
Procedure: According to this method the tested compounds were injected intraduodenally (i.d.) at the time of ligature.
Six Sprague-Dawley male rats (110-130 g) were used for each group. Twenty-four hours before the test, the rats were deprived of food but the water supply was maintained. On the day of the operation, the pylorus was ligated under light ether anaesthesia. Four hours after the ligature, the rats were sacrificed. The stomach secretion was collected and centrifugated at 3500 r.p.m. for 10 minutes and the volume, less sediment, was determined.
The amount of free hydrochloric acid in the gastric juice was determined by titration against 0.01N sodium hydroxide, to an end point of pH 7.

[3] = test system: antibody response against sheep red blood cells (SRBC); assay: antibody response induced in mice by suboptimal dose of sheep red blood cells (immunomodulating activity); assay type: in vivo, mice (female CD-1); conditions: i.p., 50 and 5 mg/kg two hours before antigen, vs control group, six days later
Procedure: Their immunomodulating activity is, for example, proven by their capacity to modify the antibody response induced in mice by a suboptimal dose of sheep red blood cells (SRBC) injected by intraperitoneal route (i.p.).
Groups of ten female CD-1 mice were injected i.p. with 2×10^6 SRBC as antigen. The tested compounds were administered i.p. at two dosage levels: 50 and 5 mg/kg body weight, two hours before the administration of the antigen. A control group of mice received SRBC and saline instead of the compounds. Six days later the mice were killed and antibody titres against SRBC determined in their sera, according to Williams C. A.: Methods in Immunology and Immunochemistry, C. A. Williams and M. W. Chase, Eds. Academic Press, New York, Vol. II, page 152, 1977.

[4] = test system: influenza virus strain APR 8; assay: influenza virus experimental infection in mice; assay type: in vivo, CD-1 mice; conditions: single dose one or two days after the infection
Procedure: (§1) The antiviral activity of the compound of the invention was, for example, evaluated on influenza and herpes simplex viruses experimental infections in mice.
(§2) Groups of CD-1 mice were infected intranasally with the strain APR 8 of influenza virus and other groups were infected intraperitoneally with the strain 1RC of herpes simplex virus. The tested compounds were administered through various routes, e.g. intraperitoneally, subcutaneously, orally.
(§3) The effect of the tested compounds, against the influenza virus, was evaluated on the basis of the number of lung lesions and, against the herpes infection, the parameter considered was the protection from mortality since, as is known, herpes simplex infection is lethal in mice.

[5] = test system: herpes simplex virus strain 1RC; assay: herpes simplex virus experimental infection in mice; assay type: in vivo, CD-1 mice; conditions: single dose one or two days after the infection
Procedure: as §1, §2, §3

[6] = lipid-lowering activity in rats fed standard MS/K Altromin diet (Experiment 2); assay type: in vivo, rat (Iva-SIV (SPF) male)
Procedure: (§4) The activity of the compounds of the invention was evaluated: (1) on groups of Icem:CER (SPF Caw) male rats, fed for six days with hypercholesterolaemic diet according to C. E. Day: Shur P. E., Shultz H. R., Day C. E. (Ed.) Atherosclerosis and drug discovery Plenum Pub. Corp., 217 (1976): Experiment 1; or (2) or groups of Iva-SIV (SPF) male rats fed standard MS/K Altromin® diet: Experiment 2. MS/K Altromin is a trade mark.
(§5) The tested compounds were suspended in Methocel (methyl-cellulose, a 0.5% solution in water) and administered by stomach tube at the dose of 50 mg/kg for 4 days in both the experiments.
(§6) Groups of animals were treated with the suspending agent only (control groups).
(§7) The total serum cholesterol was determined with the method of Allain, Clin. Chem., 1974, 20, 470.
The serum triglycerides were determined with the method of Mendez, J. Clin. Chem., 1975, 21, 768.
(§8) The total serum HDL cholesterol was determined according to Demacker P. N. H., Clin. Chem., 1977, 23, 1238.
(§9) The total β-lipoprotein cholesterol was determined by difference between total serum cholesterol and HDL cholesterol. Statistical analysis in experiment 1 and 2 was performed by the Student's t test for independent samples or by the Cochran's test when the variances were not homogeneous at the F ratio test [Bliss C. I., Statistics in Biology, Vol. 1, page 213 McGraw Hill Book Company, New York 1967; Cochran W. G., Cox C. H., Experimental designs-J. Willey and Sons Inc., New York, II Ed. (1968), page 100].

[7] = lipid-lowering activity in rats fed hypercholesterolaemic diet (Experiment 1); assay type: in vivo, rat (Icem:CER (SPF Caw) male)
Procedure: as §4, §5, §6, §7, §8, §9

[8] = Experiment 2, 50 mg/kg/os, vs control

Work on N#CC1Oc2ccccc2-c2ccccc21 (centres unmarked) [FCE 20493, 6H,6-cyano-dibenzo[b,d]pyran] yielded an LD50 at 168 h [1] of 400 to 800 mg/kg.

For N#CC1(CO)Oc2ccccc2-c2ccccc21 (centres unmarked) [FCE 20518, 6H,6-cyano-6-hydroxymethyl-dibenzo[b,d]pyran], the LD50 at 168 h [1] was over 800 mg/kg.

Compound CC1(C#N)Oc2ccccc2-c2ccccc21 (centres unmarked) [FCE 20519, 6H,6-cyano-6-methyl-dibenzo[b,d]pyran] has an LD50 at 168 h [1] of over 800 mg/kg.

CCOC(=O)C1Oc2ccccc2-c2ccccc21 (centres unmarked) [FCE 20521, 6H,6-ethoxycarbonyl-dibenzo[b,d]pyran] showed an LD50 at 168 h [1] of over 800 mg/kg.

NCC1Oc2ccccc2-c2ccccc21 (centres unmarked) [FCE 20524, 6H,6-aminomethyl-dibenzo[b,d]pyran] showed an ED50 (restraint ulcers) of 4.8 mg/kg, an ED50 [2] of over 100 mg/kg and an LD50 at 168 h [1] of 400 to 800 mg/kg. It also gave an ED50 (gastric secretion) of 6 mg/kg.

With O=C(O)C1(CO)Oc2ccccc2-c2ccccc21 (centres unmarked) [FCE 20561, 6H,6-carboxy-6-hydroxymethyl-dibenzo[b,d]pyran] the LD50 at 168 h [1] was over 800 mg/kg.

CC1(C(=O)O)Oc2ccccc2-c2ccccc21 (centres unmarked) [FCE 20562, 6H,6-carboxy-6-methyl-dibenzo[b,d]pyran] showed an LD50 at 168 h [1] of 400 to 800 mg/kg.

In the case of c1ccc2c(c1)OC(N1CCNCC1)c1ccccc1-2 (centres unmarked) [FCE 20618, 6H,6-(1-piperazinyl)-dibenzo[b,d]pyran], the ED50 (restraint ulcers) is reported as 7 mg/kg, the ED50 [2] is reported as over 100 mg/kg and the LD50 at 168 h [1] is reported as 400 to 800 mg/kg. The ED50 (gastric secretion) was 1.5 mg/kg.

In the case of CN(C)CCOC(=O)C1Oc2ccccc2-c2ccccc21 (centres unmarked) [FCE 20696, 6H,6-(2-dimethylaminoethoxycarbonyl)-dibenzo[b,d]pyran], the LD50 at 168 h [1] is reported as 400 to 800 mg/kg, the “antibody titres against SRBC” value [3] is reported as “increased the antibody titers several fold as compared to control group” and the “number of lung lesions” value [4] is reported as “reducing substantially the number of lung lesions”. The “protection from mortality (animals protected from death)” value [5] was “up to 45%”.

With CC1(C(=O)O)Oc2ccc(Cl)cc2-c2ccccc21 (centres unmarked) [FCE 20770, 6H,6-carboxy-6-methyl-2-chloro-dibenzo[b,d]pyran] the LD50 at 168 h [1] was 400 to 800 mg/kg.

With O=C(O)CC1Oc2ccccc2-c2ccccc21 (centres unmarked) [FCE 20881, 6H,6-carboxymethyl-dibenzo[b,d]pyran] the “β-lipoprotein cholesterol, mean ± S.E.” value ([6]; Experiment 2, 50 mg/kg/os for 4 days, standard diet, control 27.1 ± 1.1) was 20.5 ± 0.8 mg/100 ml, the “Total serum cholesterol, mean ± S.E.” value ([6]; Experiment 2, 50 mg/kg/os for 4 days, standard diet, control 66.3 ± 1.7) was 57.7 ± 1.5 mg/100 ml and the “Serum triglycerides (printed "trygylcerides"), mean ± S.E.” value ([6]; Experiment 2, 50 mg/kg/os for 4 days, standard diet, control 228.7 ± 18.9) was 168.3 ± 13.4 mg/100 ml. For the same compound, the “Serum triglycerides, Student's t test result” value [6, 8] was “S (significant (p <0.05))”, the “Total serum cholesterol, Student's t test result” value [6, 8] was “HS (highly significant (p <0.01))” and the “β-lipoprotein cholesterol, Student's t test result” value [6, 8] was “HS (highly significant (p <0.01))”. The “effect on total serum cholesterol, β-lipoprotein cholesterol and serum triglycerides” value ([6]; Experiment 2, in words) was “decrease the total serum cholesterol, in particular β-lipoprotein cholesterol and serum triglycerides”, the LD50 at 168 h [1] was 400 to 800 mg/kg and the “Serum HDL total cholesterol, mean ± S.E.” value ([7]; Experiment 1, 50 mg/kg/os for 4 days, hypercholesterolaemic diet, control 13.2 ± 1.8) was 23.2 ± 0.5 mg/100 ml. The “Total serum cholesterol, mean ± S.E.” value ([7]; Experiment 1, 50 mg/kg/os for 4 days, hypercholesterolaemic diet, control 459.6 ± 51.7) was 240.0 ± 20.7 mg/100 ml and the “effect on total serum cholesterol and total HDL cholesterol” value ([7]; Experiment 1, in words) was “decrease the total serum cholesterol and to increase the total HDL cholesterol”.

For CCN(CC)CCOC(=O)C1Oc2ccccc2-c2ccccc21 (centres unmarked) [FCE 21849, 6H,6-(2-diethylaminoethoxycarbonyl)-dibenzo[b,d]pyran], the LD50 at 168 h [1] was 400 to 800 mg/kg and the “antibody titres against SRBC” value [3] was “increased the antibody titers several fold as compared to control group”.
